Targets include BTK (Homo sapiens, UniProt Q06187); FGFR1 (Homo sapiens, UniProt P11362); Fgr (Homo sapiens, UniProt P09769); Syk (Homo sapiens, UniProt P43405).
What all share (assay): biochemical
Holding throughout (parameters): Invitrogen kinase panel: Z'Lyte activity (ATP at Km) or LanthaScreen competitive ATP-site binding, percent inhibition

For a further assay, the target named is T1, Abl (Homo sapiens, UniProt P00519).
T1 construct: gene ABL1

Another assay addresses T2, Brk (Homo sapiens, UniProt Q13882).
T2 construct: gene PTK6

In a further assay the target is T3, MEK1 (Homo sapiens, UniProt Q02750).
T3 construct: gene MAP2K1

The target of a further assay is T4, NEK1 (Homo sapiens, UniProt Q96PY6).
T4 sequence (Q96PY6 1-1258): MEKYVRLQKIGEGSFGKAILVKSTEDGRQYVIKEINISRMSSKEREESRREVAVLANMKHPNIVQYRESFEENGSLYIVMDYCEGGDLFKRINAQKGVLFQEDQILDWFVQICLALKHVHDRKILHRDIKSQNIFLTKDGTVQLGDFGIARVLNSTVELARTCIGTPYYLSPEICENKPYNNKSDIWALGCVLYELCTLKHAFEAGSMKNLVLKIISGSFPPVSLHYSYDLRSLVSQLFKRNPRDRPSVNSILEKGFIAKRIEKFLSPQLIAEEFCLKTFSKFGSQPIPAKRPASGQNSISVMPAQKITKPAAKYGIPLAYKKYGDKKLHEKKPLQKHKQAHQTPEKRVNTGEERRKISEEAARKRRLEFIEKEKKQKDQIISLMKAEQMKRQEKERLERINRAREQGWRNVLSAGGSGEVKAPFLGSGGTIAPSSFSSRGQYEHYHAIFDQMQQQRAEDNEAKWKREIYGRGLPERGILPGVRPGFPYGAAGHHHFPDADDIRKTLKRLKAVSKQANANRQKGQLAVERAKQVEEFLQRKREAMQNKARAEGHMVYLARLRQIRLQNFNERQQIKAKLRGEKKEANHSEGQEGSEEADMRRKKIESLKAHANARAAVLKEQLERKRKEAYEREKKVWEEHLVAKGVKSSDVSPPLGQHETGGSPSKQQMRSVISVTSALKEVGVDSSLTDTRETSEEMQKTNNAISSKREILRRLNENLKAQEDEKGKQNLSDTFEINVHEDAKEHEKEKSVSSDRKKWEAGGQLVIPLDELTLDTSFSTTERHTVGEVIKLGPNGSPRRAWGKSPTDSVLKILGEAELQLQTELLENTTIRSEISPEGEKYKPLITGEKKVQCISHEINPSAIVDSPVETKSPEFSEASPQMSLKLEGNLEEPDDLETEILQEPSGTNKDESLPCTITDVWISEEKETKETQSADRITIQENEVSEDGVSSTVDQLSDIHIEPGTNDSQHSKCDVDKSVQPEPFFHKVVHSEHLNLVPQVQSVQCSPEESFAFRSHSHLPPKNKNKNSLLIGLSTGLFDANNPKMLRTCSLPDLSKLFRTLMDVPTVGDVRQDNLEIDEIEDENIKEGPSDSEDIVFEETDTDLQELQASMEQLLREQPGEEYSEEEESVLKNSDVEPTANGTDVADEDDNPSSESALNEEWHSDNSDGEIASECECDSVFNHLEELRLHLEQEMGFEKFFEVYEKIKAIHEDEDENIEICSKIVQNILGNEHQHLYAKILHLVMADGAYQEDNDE

The next assay deals with T5, PKA (Homo sapiens, UniProt P17612).
T5 construct: gene PRKACA

The next assay deals with T6, Tie2 (Homo sapiens, UniProt Q02763).
T6 construct: gene TEK

The target in the next assay is T7, TrkA (Homo sapiens, UniProt P04629).
T7 construct: gene NTRK1
T7 sequence (P04629 whole entry): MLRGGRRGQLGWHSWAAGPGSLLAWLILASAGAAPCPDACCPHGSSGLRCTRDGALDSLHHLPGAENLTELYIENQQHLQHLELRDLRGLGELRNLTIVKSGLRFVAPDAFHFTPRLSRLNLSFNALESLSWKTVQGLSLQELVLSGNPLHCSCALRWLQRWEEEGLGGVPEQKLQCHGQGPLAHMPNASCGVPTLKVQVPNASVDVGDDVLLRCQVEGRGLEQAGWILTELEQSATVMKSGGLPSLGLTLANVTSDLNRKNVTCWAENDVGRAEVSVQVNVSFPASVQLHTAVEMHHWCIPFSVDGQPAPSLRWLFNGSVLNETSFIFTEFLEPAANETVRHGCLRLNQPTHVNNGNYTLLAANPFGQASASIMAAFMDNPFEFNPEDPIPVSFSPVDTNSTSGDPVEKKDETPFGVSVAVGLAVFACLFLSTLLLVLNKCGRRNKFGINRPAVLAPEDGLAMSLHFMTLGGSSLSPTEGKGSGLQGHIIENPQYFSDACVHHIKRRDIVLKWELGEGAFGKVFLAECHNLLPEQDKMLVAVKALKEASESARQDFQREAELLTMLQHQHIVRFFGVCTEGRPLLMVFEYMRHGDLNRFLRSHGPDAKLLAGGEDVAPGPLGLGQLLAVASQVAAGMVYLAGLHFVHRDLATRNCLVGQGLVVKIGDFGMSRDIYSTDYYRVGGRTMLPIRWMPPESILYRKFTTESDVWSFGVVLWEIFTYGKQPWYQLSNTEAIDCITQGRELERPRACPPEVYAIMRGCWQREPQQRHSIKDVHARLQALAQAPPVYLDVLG

Sequence of FGFR1 (P11362 whole entry): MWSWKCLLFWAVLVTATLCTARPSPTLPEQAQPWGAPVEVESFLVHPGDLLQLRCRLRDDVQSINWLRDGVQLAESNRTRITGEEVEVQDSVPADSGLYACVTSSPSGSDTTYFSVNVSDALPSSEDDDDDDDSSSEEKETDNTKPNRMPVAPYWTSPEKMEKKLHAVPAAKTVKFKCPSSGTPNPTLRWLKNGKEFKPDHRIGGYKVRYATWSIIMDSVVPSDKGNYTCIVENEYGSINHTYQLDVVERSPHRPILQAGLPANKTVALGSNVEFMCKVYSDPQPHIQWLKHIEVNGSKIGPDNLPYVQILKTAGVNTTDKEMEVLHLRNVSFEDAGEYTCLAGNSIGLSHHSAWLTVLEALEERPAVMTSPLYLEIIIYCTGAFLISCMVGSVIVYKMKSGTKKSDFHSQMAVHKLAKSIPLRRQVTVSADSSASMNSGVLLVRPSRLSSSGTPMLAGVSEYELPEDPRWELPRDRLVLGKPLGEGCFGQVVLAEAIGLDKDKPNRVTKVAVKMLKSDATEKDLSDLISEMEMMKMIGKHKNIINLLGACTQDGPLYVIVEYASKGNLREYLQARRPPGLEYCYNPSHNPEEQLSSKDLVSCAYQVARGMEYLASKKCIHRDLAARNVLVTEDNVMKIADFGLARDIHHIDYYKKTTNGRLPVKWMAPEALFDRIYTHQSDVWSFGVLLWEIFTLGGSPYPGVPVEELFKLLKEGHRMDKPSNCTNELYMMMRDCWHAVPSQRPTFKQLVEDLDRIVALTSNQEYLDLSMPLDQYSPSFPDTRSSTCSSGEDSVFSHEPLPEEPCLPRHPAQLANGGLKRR
Sequence of Fgr (P09769 whole entry): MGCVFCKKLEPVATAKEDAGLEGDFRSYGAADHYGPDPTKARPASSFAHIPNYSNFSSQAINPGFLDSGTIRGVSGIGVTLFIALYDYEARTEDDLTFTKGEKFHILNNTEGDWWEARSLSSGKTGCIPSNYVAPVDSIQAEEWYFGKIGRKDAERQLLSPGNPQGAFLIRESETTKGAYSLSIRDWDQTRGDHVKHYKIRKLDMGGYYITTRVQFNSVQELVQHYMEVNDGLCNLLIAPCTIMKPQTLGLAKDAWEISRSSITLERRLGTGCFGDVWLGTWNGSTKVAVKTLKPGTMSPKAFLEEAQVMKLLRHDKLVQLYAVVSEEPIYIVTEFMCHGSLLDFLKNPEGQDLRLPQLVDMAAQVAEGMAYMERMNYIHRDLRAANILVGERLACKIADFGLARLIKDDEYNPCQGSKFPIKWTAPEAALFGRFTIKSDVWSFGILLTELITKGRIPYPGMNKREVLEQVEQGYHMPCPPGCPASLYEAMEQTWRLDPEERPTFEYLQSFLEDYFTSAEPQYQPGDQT
T1 sequence (P00519 whole entry): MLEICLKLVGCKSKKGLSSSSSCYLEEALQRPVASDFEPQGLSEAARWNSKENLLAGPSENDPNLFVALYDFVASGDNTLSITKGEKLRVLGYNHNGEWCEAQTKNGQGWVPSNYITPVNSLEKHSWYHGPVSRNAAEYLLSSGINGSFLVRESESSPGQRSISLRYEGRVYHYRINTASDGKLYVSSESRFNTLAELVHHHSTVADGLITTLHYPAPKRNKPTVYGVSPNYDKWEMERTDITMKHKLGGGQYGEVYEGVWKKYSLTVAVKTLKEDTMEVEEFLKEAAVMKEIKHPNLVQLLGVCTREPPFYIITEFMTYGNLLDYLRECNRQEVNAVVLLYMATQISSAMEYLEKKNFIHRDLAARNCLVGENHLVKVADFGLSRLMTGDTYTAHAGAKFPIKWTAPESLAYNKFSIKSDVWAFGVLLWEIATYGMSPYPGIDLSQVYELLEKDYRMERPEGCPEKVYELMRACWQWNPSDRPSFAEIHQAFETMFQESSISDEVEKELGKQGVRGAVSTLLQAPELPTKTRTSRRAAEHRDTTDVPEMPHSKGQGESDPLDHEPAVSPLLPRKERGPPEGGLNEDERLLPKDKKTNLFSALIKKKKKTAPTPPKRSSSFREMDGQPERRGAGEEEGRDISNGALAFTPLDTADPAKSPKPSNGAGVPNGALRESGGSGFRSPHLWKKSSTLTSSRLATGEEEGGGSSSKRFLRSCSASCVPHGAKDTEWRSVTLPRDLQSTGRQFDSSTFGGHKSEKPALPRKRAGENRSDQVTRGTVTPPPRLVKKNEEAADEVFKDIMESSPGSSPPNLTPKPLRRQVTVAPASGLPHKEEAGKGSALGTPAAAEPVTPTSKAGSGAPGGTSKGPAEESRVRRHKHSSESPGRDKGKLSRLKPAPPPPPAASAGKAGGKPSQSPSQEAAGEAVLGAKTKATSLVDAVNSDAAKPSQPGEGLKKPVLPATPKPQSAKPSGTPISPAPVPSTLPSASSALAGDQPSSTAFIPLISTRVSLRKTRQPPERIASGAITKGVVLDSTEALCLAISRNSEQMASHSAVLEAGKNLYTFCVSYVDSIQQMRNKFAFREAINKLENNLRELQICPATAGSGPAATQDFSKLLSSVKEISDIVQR
T3 sequence (Q02750 whole entry): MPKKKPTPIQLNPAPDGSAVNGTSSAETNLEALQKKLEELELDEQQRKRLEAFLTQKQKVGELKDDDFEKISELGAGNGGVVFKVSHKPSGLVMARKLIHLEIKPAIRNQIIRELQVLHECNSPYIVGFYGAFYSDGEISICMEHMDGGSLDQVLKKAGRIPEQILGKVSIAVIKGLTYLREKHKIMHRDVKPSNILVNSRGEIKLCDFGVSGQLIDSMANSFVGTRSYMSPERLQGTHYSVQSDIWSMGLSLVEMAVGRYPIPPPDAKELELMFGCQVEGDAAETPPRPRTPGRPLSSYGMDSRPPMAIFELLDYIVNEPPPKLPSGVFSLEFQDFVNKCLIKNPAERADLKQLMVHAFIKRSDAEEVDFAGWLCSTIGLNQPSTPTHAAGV
T2 sequence (Q13882 whole entry): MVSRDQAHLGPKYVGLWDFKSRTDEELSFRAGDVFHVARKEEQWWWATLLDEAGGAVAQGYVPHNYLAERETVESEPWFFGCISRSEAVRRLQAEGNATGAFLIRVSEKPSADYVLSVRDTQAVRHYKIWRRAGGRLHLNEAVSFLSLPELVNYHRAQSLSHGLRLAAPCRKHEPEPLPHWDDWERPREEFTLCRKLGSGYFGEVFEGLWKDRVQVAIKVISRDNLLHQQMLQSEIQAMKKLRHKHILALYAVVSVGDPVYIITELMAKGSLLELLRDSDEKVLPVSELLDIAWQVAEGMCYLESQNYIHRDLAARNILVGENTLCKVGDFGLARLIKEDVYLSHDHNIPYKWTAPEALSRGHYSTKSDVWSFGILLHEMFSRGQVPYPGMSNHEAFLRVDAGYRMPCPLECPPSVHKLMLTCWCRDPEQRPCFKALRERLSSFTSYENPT
Sequence of BTK (Q06187 whole entry): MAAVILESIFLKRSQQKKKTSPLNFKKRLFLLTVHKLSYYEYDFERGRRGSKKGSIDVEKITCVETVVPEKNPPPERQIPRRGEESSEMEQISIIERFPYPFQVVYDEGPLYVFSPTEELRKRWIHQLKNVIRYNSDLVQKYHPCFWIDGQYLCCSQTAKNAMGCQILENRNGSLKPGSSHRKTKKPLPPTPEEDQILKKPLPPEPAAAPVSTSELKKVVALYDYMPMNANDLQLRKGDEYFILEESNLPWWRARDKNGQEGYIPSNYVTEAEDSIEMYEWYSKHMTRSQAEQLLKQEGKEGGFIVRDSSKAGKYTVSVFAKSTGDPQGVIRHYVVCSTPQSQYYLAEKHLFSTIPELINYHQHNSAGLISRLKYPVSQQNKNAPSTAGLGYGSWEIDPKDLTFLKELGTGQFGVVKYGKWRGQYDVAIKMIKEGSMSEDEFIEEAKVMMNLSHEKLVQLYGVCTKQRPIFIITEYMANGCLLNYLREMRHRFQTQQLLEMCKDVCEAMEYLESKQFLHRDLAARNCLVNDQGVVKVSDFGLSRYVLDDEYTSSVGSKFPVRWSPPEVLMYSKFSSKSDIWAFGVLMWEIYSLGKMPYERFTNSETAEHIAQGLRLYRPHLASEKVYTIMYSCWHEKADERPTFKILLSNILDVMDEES

Take `CC#CC(=O)Nc1cccc2c(Oc3ncccc3-c3ccnc(N[C@H]4CCCNC4)n3)c(C)ccc12` [G-7658]: the inhibition at 1 µM is -1.5% at Abl; 5.5% on BTK; -9% at Brk; 13% on FGFR1; 6% on Fgr; 0.5% at MEK1. For the same molecule, the inhibition at 1 µM on NEK1 was 3%; at PKA it was -8%; at Syk, -4.5%; at Tie2, 12.5%; at TrkA, 10.5%.
For `CCOC(=O)Nc1cccc2c(Oc3ncccc3-c3ccnc(N[C@H]4CCCNC4)n3)c(C)ccc12` [G-1749], the inhibition at 1 µM is -7.5% on Abl; 1.5% at BTK; 1.8% at Brk; 14% at FGFR1; 1.5% on Fgr; 2% at MEK1. Besides, the inhibition at 1 µM is 0.5% on NEK1; -9% on PKA; -2.5% on Syk; 26% on Tie2; -4% at TrkA.
In the case of `O=c1cc(-c2n[nH]c3ncc(-c4c(F)cccc4F)cc23)nc(N2CCC(O)CC2)[nH]1` [G-9807], the inhibition at 1 µM at Abl came out at 94.4%; on BTK, 35.9%; at Brk, 26.8%; on FGFR1, 83.8%; at Fgr, 77.1%; at MEK1 it was 95.4%. Also, the inhibition at 1 µM at NEK1 came to 90.2%; on PKA, 43%; on Syk, 52%; on Tie2 it was 95.9%; at TrkA, 91.2%.

For the origin of these results see publication PMC7736581, “Activation of the IRE1 RNase through remodeling of the kinase front pocket by ATP-competitive ligands” (Nature Communications, 2020).
